# Experimental data as given in patent US9687493B2, “Use of NK-1 receptor antagonists for treating hypomagnesemia, neurogenic inflammation, and cardiac dysfunction associated with EGFR-blocking drugs” (THE GEORGE WASHINGTON UNIVERSITY, priority 2014, dated 2017).
# Read-outs that look alike come from different tables or passages of the source.
# Experiments:
# [1] = tested on: nitro-tyrosine in cardiac tissue; experiment: Cardiac nitro-tyrosine immunohistochemical assessment; format: in vivo, Sprague-Dawley rats
# Procedure: Cardiac tissue was rapidly excised, rinsed in saline, embedded in OCT compound, quickly frozen and kept at […] until used. Cryosections, 5 um thick, were stained by an indirect, immunohistochemical staining method (13) using rabbit anti-rat Nitrotyrosine antibody (5 ug/ml; Millipore, Billerica, Mass.) and the Vecta-Stain Elite ABC kit immunoperoxidase system (Vector Laboratories, Burlingame, Calif.). Samples were examined under an Olympus BX60 microscope, and multiple images were taken with a digital camera (Evolution Color MP; Media Cybernetics, Silver Spring, Md.). Briefly, fresh frozen sections were fixed in 10% formaldehyde, washed in PBS, incubated with 0.3% hydrogen peroxide in methanol for 30 min to block endogenous peroxidase, washed in PBS and incubated overnight at 4 C with rabbit anti nitrotyrosine antibody, which was applied on every slide except negative control. ABC kit reagents for horseradish peroxidase and 3-3′diaminebenzidine (DAB) were used to visualize the antigen-antibody reaction product as brown color. The sections were counterstained with hematoxylin, rinsed, dehydrated and cleared in series of ethanol and xylene and coverslipped.
# [2] = for improvement of AoPmax: NS
# Procedure: Anesthetized rats were subjected to echocardiography periodically during the treatment regimens using a GE VingMed System Five Echocardiogram System (12, 13, 17, and 18). Heart rate and rectal temperature (35.9-37.5° C.) were monitored constantly during the imaging. Animals were placed on a warming platform with paws taped down to limit any motion during imaging, and a sterile eye lubricant was applied to prevent eye drying during the procedure. Hair over the thorax was removed first with an electric clipper, and then with a depilatory cream (<2 min exposure). Animals were imaged (10 MHz probe) for about 20 minutes at an image depth of 3 cm. This imaging system allows for both cardiac structure and function evaluation in rats. Systolic function, measured as % fractional shortening (% FS) using M-mode imaging, and left ventricular ejection fraction (LVEF), calculated from M-mode measurements, were assessed. Key anatomical parameters (IVSd & s=inter-ventricular septum diameter in diastole and systole; and LVPWd & s=LV posterior wall thickness in diastole or systole) were measured to assess the presence of dilated or hypertrophic cardiomyopathy. Measurements of the aortic and pulmonary artery diameters were used to calculate stroke volumes. Aortic pressure max (AoPmax) was assessed; and spectral Doppler velocities were measured for the pulmonic and aortic outflows to calculate cardiac output (CO), and for the mitral valve inflows to assess ventricular diastolic function (mitral valve E and A wave velocities and the E/A ratio were obtained). After echocardiography, animals were placed in room air until awake, and observed until fully recovered.
# Rats treated with erlotinib (starting 10 mg/kg/day, oral) and/or Emend (aprepitant, starting 2 mg/kg/day, oral) received echocardiography at the indicated intervals (FIGS. 5A-5C).
# Table 3 legend: Interventricular septum dimension in diastole (IVSd) and systole (IVSs); and LV posterior wall thickness in diastole (LVPWd) and systole (LVPWs). Rats treated with erlotinib (starting 10 mg/kg/day, oral) and/or Emend (aprepitant, starting 2 mg/kg/day, oral) received echocardiography at the indicated intervals. Values (% change) for erlotinib±Emend rats were compared to time-matched controls, and are means±SEM of 5-7 rats per group.
# [3] = Plasma magnesium by atomic absorption flame emission spectroscopy; format: in vivo, Sprague-Dawley rats; settings: for change in circulating Mg level vs time-matched control: erlotinib starting 10 mg/kg/day oral
# Procedure: Individually-housed rats were weighed and food consumption recorded daily to obtain actual drug dosage: time-range average erlotinib dose over 9 weeks was 7.07 mg/kg/day, and time-range average Emend dose over 9 weeks was 1.41 mg/kg/day.
# Magnesium levels in 1:50 or 1:100 diluted, acidified (nitric acid) plasma samples were determined by atomic absorption flame emission spectroscopy (wavelength=285.2 nm) using an AA-6200 Shimadzu spectrophotometer (Columbia, Md.) as described (13). Values obtained from standard curves were mg/dl, and reported as % of control.
# Plasma was assessed for magnesium by flame emission atomic absorption spectroscopy (FIG. 2A). Data are the means±SEM of 5-7 animals per group. * p<0.05, **p<0.01 and # p<0.001 compared with the time-matched control group; +p<0.055 versus erlotinib alone. Plasma SP (FIG. 2B) was assessed by a colorimetric ELISA kit.
# neutrophils = tested on: neutrophils
# Procedure: (§1) At periodic intervals, blood was collected (˜0.5 ml) aseptically from the tail of anaesthetized rats (2% isoflurane, EZ Anesthesia Chamber with nose cone)(13, 14) in sterile microtainer plasma separator tubes containing heparin and the protease inhibitor, aprotinin (Sigma Chemicals, St. Louis Mo.) to yield final blood concentrations of 10.74 units/ml and 0.016 units/ml, respectively. For subsequent samplings, the scab was carefully removed, and the process was repeated. Plasma was obtained after centrifugation (12,000 rpm, 2 min, RT, IDEXX StatSpin VT, Iris International, Inc., Westwood, Mass.). Tail bleed samples were used for assessment of plasma Mg, and substance P levels. Sacrifice blood samples (˜8 ml collected in heparin plus aprotinin containing BD vacutainer SST tubes) were taken from anaesthetized, heparinized (0.3-0.4 ml 358 units/ml heparin in 0.9% NaCl, i.p.) rats from either the vena cava or by cardiac puncture, and were centrifuged (3,500 rpm, 10 min, RT). In addition to the above plasma parameters, sacrifice plasma was also assayed for 8-isoprostane levels, and the whole blood samples were processed for neutrophil isolation and assessment of superoxide anion production.
# At sacrifice, whole blood (3 ml) samples were obtained; neutrophils were isolated by a step-gradient centrifugation method (13,−16). Superoxide anion production from neutrophils (0.5-0.75×10^6/ml) with (stimulated) or without (basal) PMA (phorbol myristate acetate, 100 ng/ml) was assayed in a phosphate buffer (pH 7.6) containing 5 mM glucose, 1 mM CaCl2, 1 mM MgCl2, and 75 μM cytochrome c±50 μg SOD. Superoxide generation was estimated as SOD-inhibitable reduction of cytochrome c using the extinction coefficient: E550=2.1×10^4M^−1cm^−1.
# Hypomagnesemia alone in rodents can promote neutrophil free radical generating activity (Mak et al., Exp. & Clin. Cardiol. 2011, 16(4):121-124; Mak et al., Magnesium Res 2003, 16(2):91-97). In the present study, blood was sampled from rats treated with erlotinib (starting 10 mg/kg/day, oral) and/or Emend (aprepitant, starting 2 mg/kg/day, oral) at 9 weeks of exposure. Circulating neutrophil basal superoxide generating activity was determined as SOD-inhibitable reduction of cytochrome c (FIG. 3A). Plasma 8-isoprostane was assessed by a colorimetric ELISA kit (FIG. 3B). Values for erlotinib±Emend rats were compared to time-matched controls, and are means±SEM of 4-6 rats per group. ** p<0.01 versus control; ++p<0.01 versus erlotinib alone. […] Enhanced systemic oxidative stress, as represented by increased total plasma 8-isoprostane content (FIG. 3B), was prominent by 9 weeks (210% increase, p<0.01).
# [4] = Procedure: as §1, with “In addition to the above plasma parameters, sacrifice plasma was also assayed for 8-isoprostane levels, and the whole blood samples were processed for neutrophil isolation and assessment of superoxide anion production.” left out
# Hypomagnesemia alone in rodents can promote neutrophil free radical generating activity (Mak et al., Exp. & Clin. Cardiol. 2011, 16(4):121-124; Mak et al., Magnesium Res 2003, 16(2):91-97). […] Circulating neutrophil basal superoxide generating activity was determined as SOD-inhibitable reduction of cytochrome c (FIG. 3A). Plasma 8-isoprostane was assessed by a colorimetric ELISA kit (FIG. 3B). […]
# [5] = Plasma substance P (SP) by ELISA; format: in vivo, Sprague-Dawley rats; settings: for increase in circulating SP vs time-matched control: erlotinib
# Procedure: (§2) Experiments on animals were conducted in accordance with the principles given in the US Department of Health and Human Services Guide for the Care and Use of Laboratory Animals and were approved by The George Washington University Institutional Animal Care and Use Committee. Male Sprague-Dawley rats (125-150 g) were purchased from Hilltop Lab Animals, Inc. (Scottdale, Pa.). After 1 week of quarantine, all age-matched rats were placed on an ad libitum Mg normal diet (25 mmole magnesium oxide/kg food regarded as 100% recommended daily allowance for rodents) obtained from Harlan-Teklad (Madison, Wis.) containing extracted casein as the diet base supplemented with essential vitamins and nutrients; or the same diet supplemented with erlotinib (OSI Pharmaceuticals, LLC, Northbrook, Ill. 60062, USA) to obtain a starting dose of 10 mg/kg/day, Emend® (as aprepitant, Merck & Co., INC. USA) to obtain a starting dose of 2 mg/kg/day, or both agents at these doses. Individually-housed rats were weighed and food consumption recorded daily to obtain actual drug dosage: time-range average erlotinib dose over 9 weeks was 7.07 mg/kg/day, and time-range average Emend dose over 9 weeks was 1.41 mg/kg/day. Rats had free access to distilled-deionized water, and were on a 12 h light/dark cycle for up to 9 weeks.
# as §1
# [6] = rat, in vivo
# Procedure: as §2, with “weeks. […]” for “weeks.”
# [7] = male, Sprague-Dawley, rat, in vivo, 9 weeks
# Procedure: Male Sprague-Dawley rats (˜150 g) were purchased from Hilltop Lab Animals (Scottdale, Pa.). After one week of quarantine, the rats were divided into 4 groups: (1) Control group (N=5) receiving Mg normal diet (25 mmole Mg Oxide/kg food); (2) Erlotinib treated group (N=5, receiving erlotinib at a starting dose of 10 mg/kg/day in the diet); (3) Erlotinib+Emend group (N=7, receiving erlotinib plus Emend at a starting dose of 2 mg/kg/day in the diet); and (4) Emend alone group (N=5).
# cancer cells = settings: through NOX-4 up-regulation; cited from earlier work
# [8] = patients with colorectal cancer, monoclonal antibodies targeting the EGFR; cited from earlier work
# [9] = 7 weeks, Emend co-treatment of erlotinib-exposed rats
# [10] = 7 weeks, Emend co-treatment, p<0.05 vs erlotinib alone
# [11] = 9 weeks, Emend co-treatment, p<0.02
# [12] = 9 weeks, Emend co-treatment with erlotinib
# [13] = male, Sprague-Dawley, rat, in vivo
# [14] = male, Sprague-Dawley, rat, in vivo, 7 weeks
# [15] = male, Sprague-Dawley, rat, in vivo, 9 weeks
compound,measurement,setting,value
"C[C@@H](O[C@H]1OCCN(Cc2n[nH]c(=O)[nH]2)[C@H]1c1ccc(F)cc1)c1cc(C(F)(F)F)cc(C(F)(F)F)c1 [Emend, aprepitant]",nitro-tyrosine formation in the ventricles,"[1]; 9 wk, Emend co-treatment with erlotinib",visibly attenuated
same,nitro-tyrosine formation,"[1]; rat, in vivo",did not have any effect
same,improvement of LV % FS compared to erlotinib alone,"[2]; 7 weeks, Emend co-treatment",65.1%
same,improvement of LVPWs,"[2]; 7 weeks, Emend co-treatment",53.4%
same,protection against erlotinib-induced decline in cardiac output,"[2]; 7 weeks, Emend co-treatment",64.9%
same,improvement of IVSd,[2]; [9],48.2%
same,improvement of LVEF compared to erlotinib alone,[2]; [9],71.3%
same,improvement of AoPmax,"[2]; 7 weeks, Emend co-treatment",86%
same,improvement of IVSs,[2]; [10],76%
same,improvement of LVPWd,[2]; [10],59.1%
same,improvement of IVSd,"[2]; 9 weeks, Emend co-treatment",42.8%
same,improvement of IVSs,"[2]; 9 weeks, Emend co-treatment",62%
same,improvement of LVPWd,"[2]; 9 weeks, Emend co-treatment",49.8%
same,improvement of LVPWs,"[2]; 9 weeks, Emend co-treatment",58.2%
same,improvement of AoPmax,"[2]; 9 weeks, Emend co-treatment",64%
same,improvement of LV % FS compared to erlotinib alone,[2]; [11],86.4%
same,improvement of LVEF compared to erlotinib alone,[2]; [11],87.2%
same,protection against erlotinib-induced decline in cardiac output,"[2]; 9 weeks, Emend co-treatment, p<0.02 vs ERL alone",75.4%
same,improvement of mitral valve E/A ratio compared to erlotinib alone,"[2]; 9 weeks, Emend co-treatment, p<0.05",84.6%
same,"impact on LV systolic, diastolic, hemodynamic and anatomical parameters compared to time-paired controls","[2]; rat, in vivo",did not have any significant impact
same,attenuation of severity of hypomagnesemia due to erlotinib,"[3]; 9 week, Emend (starting 2 mg/kg/day) co-treatment with erlotinib",~42%
same,effect on erlotinib-caused increase in basal superoxide generating activity,neutrophils; [12],completely prevented
same,effect on erlotinib-caused increase in stimulated superoxide generating activity,neutrophils; [12],completely prevented
same,effect on neutrophil superoxide activity,"neutrophils; rat, in vivo",no effects
same,effect on elevation of total plasma isoprostane caused by erlotinib,[4]; [12],completely blocked
same,effect on erlotinib-induced increases in SP,[5]; Emend co-treatment with erlotinib,almost completely blocked
same,food consumption compared to controls,[6],Neither ERL nor Emend affected food consumption
"C#Cc1cccc(Nc2ncnc3cc(OCCOC)c(OCCOC)cc23)c1 [Erlotinib, erlotinib]","cardiac nitro-tyrosine (NT) presence, immunohistochemical staining",[1]; 9 wk of Erlotinib treatment,substantial perivascular and diffused NT presence
same,decline in IVSd,[2]; [13],12.8-16.8%
same,decline in LVPWs,[2]; [13],9.3-21.9%
same,fall in LVPWd,[2]; [13],15.6-20.9%
same,lower IVSs,[2]; [13],11.4-17.5%
same,LV % fractional shortening (LV % FS) lower than time-matched control,[2]; [14],17.2%
same,LV ejection fraction (LVEF) lower than time-matched control,[2]; [14],10.4%
same,aortic pressure maximum lower than control,[2]; [14],17.1%
same,cardiac output reduced vs control,[2]; [14],18.8%
same,LV % fractional shortening (LV % FS) lower than time-matched control,[2]; [15],17.7%
same,LV ejection fraction (LVEF) lower than time-matched control,[2]; [15],11%
same,aortic pressure maximum lower than control,[2]; [15],27.5%
same,cardiac output reduced vs control,[2]; [15],20.3%
same,mitral valve E/A ratio reduction,[2]; [15],17.5%
same,changes in cardiac contractile function,"[2]; rat, in vivo",No significant changes
same,mitral valve E/A ratio,"[2]; rat, in vivo",not significantly affected
same,change in circulating Mg level vs time-matched control,[3]; 1.5 week,−2%
same,change in circulating Mg level vs time-matched control,"[3]; 9 weeks, p<0.001",−26%
same,change in circulating Mg level vs time-matched control,[3]; wk 3,−9%
same,change in circulating Mg level vs time-matched control,[3]; wk 5,−13%
same,change in circulating Mg level vs time-matched control,[3]; wk 7,−16%
same,"neutrophil basal superoxide generating activity, higher than control","neutrophils; rat, in vivo",3 fold
same,number of animals that developed facial lesion,[7],5
same,increase of total plasma 8-isoprostane content,"[4]; rat, in vivo",210%
same,increase in circulating SP vs time-matched control,"[5]; week 3, p<0.05",27.3%
same,increase in circulating SP vs time-matched control,"[5]; week 5, NS",12.3%
same,increase in circulating SP vs time-matched control,"[5]; week 9, p<0.01",25.4%
same,cellular oxidative stress,cancer cells,can provoke cellular oxidative stress
same,food consumption compared to controls,[6],Neither ERL nor Emend affected food consumption
panitumumab,hypomagnesemia in treated patients,[8],pronounced hypomagnesemia
